Reference: US20190031717A1, “MULTI-FUNCTIONAL FUSION POLYPEPTIDE, PREPARATION METHOD THEREOF, AND APPLICATION OF SAME” (NANJING ANJI BIOLOGICAL TECHNOLOGY CO., LTD, priority 2016, published 2019)

Test system: Thyroid cancer
Assay: MTT assay, tumor cells
Type: cell-based, human
Set-up: concentration or dose not given beside the values
Details: 48 hours, mean ± SD
Experimental: (§1) A variety of human tumor cells were cultured in a 37° C., 5% (volume fraction) CO2 incubator to a density of 90% or more, collected by trypsinization, resuspended in a culture medium and counted under a microscope, and the cells were harvested. The concentration was adjusted to 2.0×10^4 cells/mL, the cell suspension was inoculated into a 96-well plate at 100 μL per well and cultured overnight at 37° C. in a 5% (volume fraction) CO2 incubator. After the cells were completely adhered, the polypeptides of the present invention were added as drug-administered groups, and a culture solution containing no drug was used as a blank control group, and the culture solution was diluted to each predetermined concentration. Each dilution was separately added to a 96-well plate at 100 μL per well and incubated for 48 hours at 37° C. in a 5% (volume fraction) CO2 incubator. 20 μL of 5 mg/mL MTT was added to each well of a 96-well plate and incubation was continued for 4 h. The medium was aspirated and dissolved in 100 μL of DMSO per well. The absorbance was measured with a microplate reader at a detection wavelength of 570 nm and a reference wavelength of 630 nm, and the growth inhibition rate was calculated as follows: tumor growth inhibition rate (%)=(1−absorbance value of the administered group/unadministered group absorbance value)×100%, and the experiment was repeated 3 times independently. The results obtained from the test were expressed as mean±standard deviation, and the tumor growth inhibition rate of the unadministered group was 0. The results in Table 7 indicate that the polypeptides of the present invention have a significant inhibitory effect on the growth of various tumors (FIG. 6).

Substance | tumor growth inhibition rate, MTT Assay [%]
Arg-Gly-Asp-Gly-Gly-Gly-Gly-Ile-Val-Arg-Arg-Ala-Asp-Arg-Ala-Ala-Val-Pro-Gly-Gly-Gly-Gly-Pro-(D-Pyr)-(D-Cys)-Bip-Arg-Gly-Glu [Polypeptide IV] | 63.05 ± 16.87

Test system: Head and neck cancer
Assay: MTT assay, tumor cells
Type: cell-based, human
Set-up: concentration or dose not given beside the values
Details: 48 hours, mean ± SD
Experimental: as §1

Substance | tumor growth inhibition rate, MTT Assay [%]
Arg-Gly-Asp-Gly-Gly-Gly-Gly-Ile-Val-Arg-Arg-Ala-Asp-Arg-Ala-Ala-Val-Pro-Gly-Gly-Gly-Gly-Pro-(D-Pyr)-(D-Cys)-Bip-Arg-Gly-Glu [Polypeptide IV] | 48.89 ± 13.08

Test system: Breast cancer
Assay: MTT assay, tumor cells
Type: cell-based, human
Set-up: concentration or dose not given beside the values
Details: 48 hours, mean ± SD
Experimental: as §1

Substance | tumor growth inhibition rate, MTT Assay [%]
Arg-Gly-Asp-Gly-Gly-Gly-Gly-Ile-Val-Arg-Arg-Ala-Asp-Arg-Ala-Ala-Val-Pro-Gly-Gly-Gly-Gly-Pro-(D-Pyr)-(D-Cys)-Bip-Arg-Gly-Glu [Polypeptide IV] | 92.16 ± 24.65

Test system: Esophageal cancer
Assay: MTT assay, tumor cells
Type: cell-based, human
Set-up: concentration or dose not given beside the values
Details: 48 hours, mean ± SD
Experimental: as §1

Substance | tumor growth inhibition rate, MTT Assay [%]
Arg-Gly-Asp-Gly-Gly-Gly-Gly-Ile-Val-Arg-Arg-Ala-Asp-Arg-Ala-Ala-Val-Pro-Gly-Gly-Gly-Gly-Pro-(D-Pyr)-(D-Cys)-Bip-Arg-Gly-Glu [Polypeptide IV] | 66.24 ± 17.72

Test system: sarcoma
Assay: MTT assay, tumor cells
Type: cell-based, human
Set-up: concentration or dose not given beside the values
Details: 48 hours, mean ± SD
Experimental: as §1

Substance | tumor growth inhibition rate, MTT Assay [%]
Arg-Gly-Asp-Gly-Gly-Gly-Gly-Ile-Val-Arg-Arg-Ala-Asp-Arg-Ala-Ala-Val-Pro-Gly-Gly-Gly-Gly-Pro-(D-Pyr)-(D-Cys)-Bip-Arg-Gly-Glu [Polypeptide IV] | 66.39 ± 17.76

Test system: Ovarian cancer
Assay: MTT assay, tumor cells
Type: cell-based, human
Set-up: concentration or dose not given beside the values
Details: 48 hours, mean ± SD
Experimental: as §1

Substance | tumor growth inhibition rate, MTT Assay [%]
Arg-Gly-Asp-Gly-Gly-Gly-Gly-Ile-Val-Arg-Arg-Ala-Asp-Arg-Ala-Ala-Val-Pro-Gly-Gly-Gly-Gly-Pro-(D-Pyr)-(D-Cys)-Bip-Arg-Gly-Glu [Polypeptide IV] | 91.45 ± 24.46

Test system: Cervical cancer
Assay: MTT assay, tumor cells
Type: cell-based, human
Set-up: concentration or dose not given beside the values
Details: 48 hours, mean ± SD
Experimental: as §1

Substance | tumor growth inhibition rate, MTT Assay [%]
Arg-Gly-Asp-Gly-Gly-Gly-Gly-Ile-Val-Arg-Arg-Ala-Asp-Arg-Ala-Ala-Val-Pro-Gly-Gly-Gly-Gly-Pro-(D-Pyr)-(D-Cys)-Bip-Arg-Gly-Glu [Polypeptide IV] | 64.58 ± 28.95

Test system: Colorectal cancer
Assay: MTT assay, tumor cells
Type: cell-based, human
Set-up: concentration or dose not given beside the values
Details: 48 hours, mean ± SD
Experimental: as §1

Substance | tumor growth inhibition rate, MTT Assay [%]
Arg-Gly-Asp-Gly-Gly-Gly-Gly-Ile-Val-Arg-Arg-Ala-Asp-Arg-Ala-Ala-Val-Pro-Gly-Gly-Gly-Gly-Pro-(D-Pyr)-(D-Cys)-Bip-Arg-Gly-Glu [Polypeptide IV] | 85.80 ± 22.95

Test system: Hemangioma
Assay: MTT assay, tumor cells
Type: cell-based, human
Set-up: concentration or dose not given beside the values
Details: 48 hours, mean ± SD
Experimental: as §1

Substance | tumor growth inhibition rate, MTT Assay [%]
Arg-Gly-Asp-Gly-Gly-Gly-Gly-Ile-Val-Arg-Arg-Ala-Asp-Arg-Ala-Ala-Val-Pro-Gly-Gly-Gly-Gly-Pro-(D-Pyr)-(D-Cys)-Bip-Arg-Gly-Glu [Polypeptide IV] | 87.49 ± 27.47

Test system: Gastric cancer
Assay: MTT assay, tumor cells
Type: cell-based, human
Set-up: concentration or dose not given beside the values
Details: 48 hours, mean ± SD
Experimental: as §1

Substance | tumor growth inhibition rate, MTT Assay [%]
Arg-Gly-Asp-Gly-Gly-Gly-Gly-Ile-Val-Arg-Arg-Ala-Asp-Arg-Ala-Ala-Val-Pro-Gly-Gly-Gly-Gly-Pro-(D-Pyr)-(D-Cys)-Bip-Arg-Gly-Glu [Polypeptide IV] | 65.35 ± 21.81

Test system: Staphylococcal fluid
Assay: Mouse pneumonia model, bacterial
Type: in vivo, BALB/C mice
Set-up: concentration or dose not given beside the values
Details: mean ± SD
Experimental: (§2) The mouse pneumonia model was successfully established by the nose-drop method. To build the mouse pneumonia model, BALB/C mice with a body mass of 16-22 g were selected and anesthetized pneumonia chain was prepared after anesthesia with ether on day 0, day 1, and day 2. Staphylococcal fluid, adenovirus concentrate, Mycoplasma pneumoniae, Chlamydia pneumoniae, protozoa, and pneumonia fungi were slowly dripped into the nasal cavity of the mice, so that they enter the tracheobronchial. During the operation process, care was exercised to prevent bacterial fluid from flowing into the esophagus, which leads to inactivation the bacterial fluid. After successful model establishment, the polypeptides of the present invention were administered, and the results were shown in Table 5. […] The results were expressed in average value±standard deviation.

Substance | Inhibitory Effects on Various Pulmonary Infections [%]
Arg-Gly-Asp-Gly-Gly-Gly-Gly-Ile-Val-Arg-Arg-Ala-Asp-Arg-Ala-Ala-Val-Pro-Gly-Gly-Gly-Gly-Pro-(D-Pyr)-(D-Cys)-Bip-Arg-Gly-Glu [Polypeptide IV] | 44.75 ± 13.08

Test system: Mycoplasma pneumoniae
Assay: Mouse pneumonia model, mycoplasma
Type: in vivo, BALB/C mice
Set-up: concentration or dose not given beside the values
Details: mean ± SD
Experimental: as §2

Substance | Inhibitory Effects on Various Pulmonary Infections [%]
Arg-Gly-Asp-Gly-Gly-Gly-Gly-Ile-Val-Arg-Arg-Ala-Asp-Arg-Ala-Ala-Val-Pro-Gly-Gly-Gly-Gly-Pro-(D-Pyr)-(D-Cys)-Bip-Arg-Gly-Glu [Polypeptide IV] | 40.35 ± 16.87

Test system: protozoa
Assay: Mouse pneumonia model, protozoal
Type: in vivo, BALB/C mice
Set-up: concentration or dose not given beside the values
Details: mean ± SD
Experimental: as §2

Substance | Inhibitory Effects on Various Pulmonary Infections [%]
Arg-Gly-Asp-Gly-Gly-Gly-Gly-Ile-Val-Arg-Arg-Ala-Asp-Arg-Ala-Ala-Val-Pro-Gly-Gly-Gly-Gly-Pro-(D-Pyr)-(D-Cys)-Bip-Arg-Gly-Glu [Polypeptide IV] | 62.44 ± 24.16
